Laboratory results reported in patent US10988477B2 (Merck Patent GmbH, priority 2018, dated 2021).

target: GCN2 kinase (Homo sapiens, UniProt Q9P2K8); experiment: GCN2 enzyme inhibition assay (Transcreener ADP2 fluorescence polarization); type: biochemical; conditions: Enzyme activity for compounds of Formula IV; Ki(app), 280 μM ATP, 25° C.
Method in brief: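 4 nM GCN2 + 200 μM (RS)7 + compound (0–8 μM), 10 min preinc.; start with ATP (280 μM final); 1 h, 25 °C; pH 7.5 Tris/NaCl/MgCl2/DTT; ADP FP readout; IC50, Ki(app) via tight-binding fit.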

GCN2 kinase, sequence (Q9P2K8 whole entry): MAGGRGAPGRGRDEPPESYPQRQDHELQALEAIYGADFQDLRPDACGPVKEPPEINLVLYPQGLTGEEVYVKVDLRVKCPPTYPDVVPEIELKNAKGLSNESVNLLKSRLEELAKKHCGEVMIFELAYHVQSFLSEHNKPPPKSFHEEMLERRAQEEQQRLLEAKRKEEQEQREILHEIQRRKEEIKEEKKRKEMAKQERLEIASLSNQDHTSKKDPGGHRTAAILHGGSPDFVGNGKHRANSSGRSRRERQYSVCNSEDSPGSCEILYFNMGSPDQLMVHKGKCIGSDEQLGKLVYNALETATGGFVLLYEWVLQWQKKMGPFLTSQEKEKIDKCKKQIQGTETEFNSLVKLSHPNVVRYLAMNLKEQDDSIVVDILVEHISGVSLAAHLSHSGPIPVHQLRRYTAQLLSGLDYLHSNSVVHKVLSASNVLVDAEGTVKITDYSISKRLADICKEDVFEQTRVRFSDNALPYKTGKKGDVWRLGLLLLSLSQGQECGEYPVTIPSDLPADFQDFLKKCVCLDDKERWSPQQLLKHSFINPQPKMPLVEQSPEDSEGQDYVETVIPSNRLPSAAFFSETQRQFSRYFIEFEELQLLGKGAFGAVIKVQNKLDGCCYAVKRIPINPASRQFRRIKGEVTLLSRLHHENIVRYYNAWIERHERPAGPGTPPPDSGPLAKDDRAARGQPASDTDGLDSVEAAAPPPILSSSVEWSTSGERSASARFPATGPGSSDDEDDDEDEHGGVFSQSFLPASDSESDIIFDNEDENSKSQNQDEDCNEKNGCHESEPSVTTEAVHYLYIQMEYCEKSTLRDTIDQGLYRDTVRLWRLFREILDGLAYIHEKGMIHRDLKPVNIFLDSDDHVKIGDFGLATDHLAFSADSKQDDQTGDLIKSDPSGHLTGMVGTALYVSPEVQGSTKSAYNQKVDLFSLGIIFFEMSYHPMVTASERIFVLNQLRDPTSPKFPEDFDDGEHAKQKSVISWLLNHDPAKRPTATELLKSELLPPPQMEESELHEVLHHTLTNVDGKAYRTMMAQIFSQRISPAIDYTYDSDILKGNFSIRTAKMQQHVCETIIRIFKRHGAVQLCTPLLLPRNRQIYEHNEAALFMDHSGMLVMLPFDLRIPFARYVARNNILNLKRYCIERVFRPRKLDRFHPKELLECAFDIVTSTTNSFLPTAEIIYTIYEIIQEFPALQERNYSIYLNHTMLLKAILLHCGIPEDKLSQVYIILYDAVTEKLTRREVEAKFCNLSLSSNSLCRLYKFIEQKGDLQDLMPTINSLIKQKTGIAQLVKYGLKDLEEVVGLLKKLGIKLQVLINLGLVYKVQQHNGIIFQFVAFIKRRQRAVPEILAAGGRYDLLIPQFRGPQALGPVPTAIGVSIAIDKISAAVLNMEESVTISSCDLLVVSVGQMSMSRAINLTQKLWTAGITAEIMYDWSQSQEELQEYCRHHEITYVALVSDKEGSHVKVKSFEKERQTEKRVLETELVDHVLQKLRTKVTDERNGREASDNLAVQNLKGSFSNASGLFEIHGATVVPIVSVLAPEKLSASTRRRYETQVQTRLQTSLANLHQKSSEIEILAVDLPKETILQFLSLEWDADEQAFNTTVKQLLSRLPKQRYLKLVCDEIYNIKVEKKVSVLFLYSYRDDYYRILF

`CC1CN(c2nccc(-c3cnc4cnc(C(F)F)cn34)n2)CC(CNS(C)(=O)=O)C1(F)F` (stereo not drawn) [IV-46, N-((1-(4-(6-(Difluoromethyl)imidazo[1,2-a]pyrazin-3-yl)pyrimidin-2-yl)-4,4-difluoro-5-methylpiperidin-3-yl)methyl)methanesulfonamide] and `Cc1cn2c(-c3nccc(N4CCO[C@H](CNS(C)(=O)=O)C4)n3)cnc2cn1` [IV-47, (S)—N-((4-(2-(6-Methylimidazo[1,2-a]pyrazin-3-yl)pyrimidin-4-yl)morpholin-2-yl)methyl)methanesulfonamide] fall in the same range of Ki: 100 to 1000 nM for the first, 100 to 1000 nM for the second.

`FC(F)c1cn2c(-c3nsc(N4CCOC(c5cn[nH]c5)C4)n3)cnc2cn1` (stereo not drawn) [IV-702, 4-(3-(6-(difluoromethyl)imidazo[1,2-a]pyrazin-3-yl)-1,2,4-thiadiazol-5-yl)-2-(1H-pyrazol-4-yl)morpholine] and `O=c1[nH]nc2n1CCN(c1ccnc(-c3cnc4cnc(C(F)F)cn34)n1)C2` [IV-83, 7-(2-(6-(Difluoromethyl)imidazo[1,2-a]pyrazin-3-yl)pyrimidin-4-yl)-5,6,7,8-tetrahydro-[1,2,4]triazolo[4,3-a]pyrazin-3 (2H)-one] fall in the same range of Ki: 100 to 1000 nM for the first, 100 to 1000 nM for the second.

`NC(=O)C1CN(c2ccnc(-c3cnc4cnc(C(F)(F)F)cn34)n2)CCO1` (stereo not drawn) [IV-599, 4-(2-(6-(Trifluoromethyl)imidazo[1,2-a]pyrazin-3-yl)pyrimidin-4-yl)morpholine-2-carboxamide] and `NC(=O)C1CCN(c2ccnc(-c3cnc4cnc(C(F)(F)F)cn34)n2)C1` (stereo not drawn) [IV-598, 1-(2-(6-(Trifluoromethyl)imidazo[1,2-a]pyrazin-3-yl)pyrimidin-4-yl)pyrrolidine-3-carboxamide] fall in the same range of Ki: 100 to 1000 nM for the first, 100 to 1000 nM for the second.

Compared with `CC1C(C(N)=O)CCCN1c1ccnc(-c2cnc3cnc(C(F)(F)F)cn23)n1` (single isomer, unassigned) [IV-498, 2-Methyl-1-(2-(6-(trifluoromethyl)imidazo[1,2-a]pyrazin-3-yl)pyrimidin-4-yl)piperidine-3-carboxamide], `O=C(Nc1ccccn1)[C@H]1CCCN(c2ccnc(-c3cnc4cnc(C(F)(F)F)cn34)n2)C1` [IV-740] is higher in Ki: 100 to 1000 nM for the first, greater than 1000 nM for the second.

`CC1CN(c2ccnc(-c3cnc4cnc(Br)cn34)n2)C(C)C(c2cn[nH]c2)N1` (single isomer, unassigned) [IV-287, 6-Bromo-3-(4-(2,5-dimethyl-3-(1H-pyrazol-4-yl)piperazin-1-yl)pyrimidin-2-yl)imidazo[1,2-a]pyrazine] and `CC1CNC(c2cn[nH]c2)CN1c1ccnc(-c2cnc3cnc(C(F)(F)F)cn23)n1` (single isomer, unassigned) [IV-333, 3-(4-(2-Methyl-5-(1H-pyrazol-4-yl)piperazin-1-yl)pyrimidin-2-yl)-6-(trifluoromethyl)imidazo[1,2-a]pyrazine] fall in the same range of Ki: 10 to 100 nM for the first, 10 to 100 nM for the second.

Compared with `NC(=O)c1cn2c(-c3nccc(N4CCC5(CC4)OCCO5)n3)cnc2cn1` [IV-266, 3-(4-(1,4-Dioxa-8-azaspiro[4.5]decan-8-yl)pyrimidin-2-yl)imidazo[1,2-a]pyrazine-6-carboxamide], `NC(=O)c1cn2c(-c3nccc(N4CCC(=O)N5CCCC5C4)n3)cnc2cn1` (stereo not drawn) [IV-262, 3-(4-(5-Oxohexahydro-1H-pyrrolo[1,2-a][1,4]diazepin-2(3H)-yl)pyrimidin-2-yl)imidazo[1,2-a]pyrazine-6-carboxamide] is higher in Ki: 10 to 100 nM for the first, 100 to 1000 nM for the second.

First: FC(F)c1cn2c(-c3cccc(-c4cccc5[nH]ccc45)n3)cnc2cn1 [IV-233, 3-(6-(1H-Indol-4-yl)pyridin-2-yl)-6-(difluoromethyl)imidazo[1,2-a]pyrazine]
Second: CN1CCN(c2cccc(-c3cnc4cnc(C(N)=O)cn34)n2)CC1 [IV-212, 3-(6-(4-Methylpiperazin-1-yl)pyridin-2-yl)imidazo[1,2-a]pyrazine-6-carboxamide]
The Ki of the first is lower: 10 to 100 nM for the first, 100 to 1000 nM for the second.

First: O=C1CCCC2CN(c3ccnc(-c4cnc5cnc(Cl)cn45)n3)CCN12 (single isomer, unassigned) [IV-293, 2-(2-(6-Chloroimidazo[1,2-a]pyrazin-3-yl)pyrimidin-4-yl)octahydro-6H-pyrido[1,2-a]pyrazin-6-one]
Second: CC1C(c2cn[nH]c2)OCCN1c1nccc(-c2cnc3cnc(C(F)(F)F)cn23)n1 (stereo not drawn) [IV-417, 3-Methyl-2-(1H-pyrazol-4-yl)-4-(4-(6-(trifluoromethyl)imidazo[1,2-a]pyrazin-3-yl)pyrimidin-2-yl)morpholine]
The Ki of the first is higher: 10 to 100 nM for the first, less than 10 nM for the second.

same assay, conditions: compounds of Formula II; 280 μM ATP, 4 nM GCN2 kinase

`CN(CC1CCCN(c2cc(-c3cnc4ccc(C(F)F)nn34)ccn2)C1)S(C)(=O)=O` (stereo not drawn) [II-109, N-((1-(4-(6-(Difluoromethyl)imidazo[1,2-b]pyridazin-3-yl)pyridin-2-yl)piperidin-3-yl)methyl)-N-methylmethanesulfonamide] and `CS(=O)(=O)N1CC2(CN(c3cc(-c4cnc5ccc(C(F)F)nn45)ccn3)CCO2)C1` [II-126, 8-(4-(6-(Difluoromethyl)imidazo[1,2-b]pyridazin-3-yl)pyridin-2-yl)-2-(methylsulfonyl)-5-oxa-2,8-diazaspiro[3.5]nonane] fall in the same range of Ki: 10 to 1000 nM for the first, 10 to 1000 nM for the second.

`CC1CC(P(C)(C)=O)CN(c2cc(-c3cnc4ccc(C(F)(F)F)nn34)ncn2)C1` (stereo not drawn) [II-713, 3-[6-(3-Dimethylphosphoryl-5-methyl-1-piperidyl)pyrimidin-4-yl]-6-(trifluoromethyl)imidazo[1,2-b]pyridazine] and `CCS(=O)(CC)=NC1CC(C)CN(c2cc(-c3cnc4ccc(C(F)F)nn34)ncn2)C1` (stereo not drawn) [II-627, ((1-(6-(6-(Difluoromethyl)imidazo[1,2-b]pyridazin-3-yl)pyrimidin-4-yl)-5-methylpiperidin-3-yl)imino)diethyl-λ^6-sulfanone] fall in the same range of Ki: 10 to 1000 nM for the first, 10 to 1000 nM for the second.

`CS(=O)(=O)NCC1CC(C#N)CN(c2cc(-c3cnc4ccc(C(F)F)nn34)ncn2)C1` (stereo not drawn) and `CC1CCN(c2cc(-c3cnc4ccc(C(F)F)nn34)ncn2)CC1N=S(C)(C)=O` (single isomer, unassigned) [II-633, ((1-(6-(6-(Difluoromethyl)imidazo[1,2-b]pyridazin-3-yl)pyrimidin-4-yl)-4-methylpiperidin-3-yl)imino)dimethyl-λ^6-sulfanone] fall in the same range of Ki: 10 to 1000 nM for the first, 10 to 1000 nM for the second.

Compared with `C[C@@H]1C[C@H](CS(C)(=N)=O)[C@H](C)N(c2cc(-c3cnc4ccc(C(F)F)nn34)ncn2)C1` (stereo partly drawn) [II-606, (((2S,3S,5R)-1-(6-(6-(Difluoromethyl)imidazo[1,2-b]pyridazin-3-yl)pyrimidin-4-yl)-2,5-dimethylpiperidin-3-yl)methyl)(imino)(methyl)-λ^6-sulfanone], `C[C@H]1C[C@@H](CS(C)(=N)=O)[C@@H](C)N(c2cc(-c3cnc4ccc(C(F)F)nn34)ncn2)C1` (stereo partly drawn) [II-605, (((2R,3R,5S)-1-(6-(6-(Difluoromethyl)imidazo[1,2-b]pyridazin-3-yl)pyrimidin-4-yl)-2,5-dimethylpiperidin-3-yl)methyl)(imino)(methyl)-λ^6-sulfanone] is higher in Ki: less than 10 nM for the first, 10 to 1000 nM for the second.

`CC1CN(c2cc(-c3cnc4ccc(C(F)F)nn34)ncn2)CC(CO)O1` (stereo not drawn) [II-615, (4-(6-(6-(Difluoromethyl)imidazo[1,2-b]pyridazin-3-yl)pyrimidin-4-yl)-6-methylmorpholin-2-yl)methanol] and `OC1CCCC2C1NCCN2c1cc(-c2cnc3ccc(C(F)F)nn23)ncn1` (stereo not drawn) [II-628, 1-[6-[6-(Difluoromethyl)imidazo[1,2-b]pyridazin-3-yl]pyrimidin-4-yl]-3,4,4a,5,6,7,8,8a-octahydro-2H-quinoxalin-5-ol] fall in the same range of Ki: 10 to 1000 nM for the first, 10 to 1000 nM for the second.

`Cc1cc(CN=S(C)(C)=O)cc(-c2cc(-c3cnc4ccc(C(F)F)nn34)ncn2)c1` [II-610, [3-[6-[6-(Difluoromethyl)imidazo[1,2-b]pyridazin-3-yl]pyrimidin-4-yl]-5-methyl-phenyl]methylimino-dimethyl-oxo-λ^6-sulfane] was tested, and the Ki was 10 to 1000 nM.

same assay, conditions: compounds of Formula IV; 280 μM ATP, 4 nM GCN2 kinase

For `C[C@H]1[C@@H](c2cn[nH]c2)N(C(=O)c2cnoc2)[C@@H](C)CN1c1ccnc(-c2cnc3cnc(C(F)(F)F)cn23)n1` [IV-779, ((2R,3S,6S)-3,6-dimethyl-2-(1H-pyrazol-4-yl)-4-(2-(6-(trifluoromethyl)imidazo[1,2-a]pyrazin-3-yl)pyrimidin-4-yl)piperazin-1-yl)(isoxazol-4-yl)methanone], the IC50 was 10 to 1000 nM.

target: intracellular GCN2 (phosphorylation of the GCN2 substrate eIF2α) (Homo sapiens, UniProt Q9P2K8); experiment: GCN2 cellular inhibition assay (AlphaScreen SureFire P-eIF2α Ser51, borrelidin-treated U2OS cells); type: cell-based; conditions: compounds of Formula II; biomarker assay, phosphorylated eIF2α Ser51 in borrelidin-treated U2OS cells
Sequence (Q9P2K8 whole entry): as above
Method: Compounds can be screened for their ability to inhibit intracellular GCN2 using an AlphaScreen assay (Perkin Elmer) to detect phosphorylation of the GCN2 substrate eIF2α in borrelidin-treated cells. U2OS cells are plated at 5,000 cells per well in 384-well white polystyrene plates (Corning 3570) in McCoy's 5 A media (GIBCO 26600-023) supplemented with 10% foetal bovine serum (SAFC 12103C), Penicillin/Streptomycin solution diluted 1:100 (Sigma P0781), and 2 mM L-glutamine (Sigma G7513), and allowed to adhere overnight at 37° C. in 5% CO2. Compounds are then added to the cell media from a final concentration of 40 μM in 4-fold serial dilutions. Borrelidin (FluoroChem M01440) is immediately added to the wells to a final concentration of 10 μM and the cells are incubated for 1 h at 37° C. in 5% CO2. After 1 h of treatment with borrelidin, the media is removed, and the cells are lysed with lysis buffer (TGR BioSciences TGRLB) at ambient temperature.
An AlphaScreen SureFire P-eIF2α (Ser51) assay kit (Perkin Elmer TGREIF2S) was used to measure levels of eIF2α phosphorylated on Serine 51. Anti-phosphorylated eIF2α Ser51 antibody-linked acceptor beads (TGR BioScience 6760617) are added to the cell homogenate (diluted 1:250 into a mixture of activation (TGR BioScience TGRAB) and reaction buffer (TGR BioScience TGREIF2S) prepared immediately before use). The plate is then incubated for 2 h at ambient temperature in the dark. Anti-eIF2α antibody-linked donor beads (TGR BioScience 6760617) were then added (diluted 1:100 in dilution buffer (TGR BioScience TGRDB) prepared immediately before use). The plate is then incubated overnight at ambient temperature in the dark.
Plates are analyzed on an Alpha Technology-compatible PHERAstar FS plate reader (BMG Labtech Version 1.14) to quantify phosphorylated eIF2α Ser51 levels. The percentage inhibition of phosphorylated eIF2α is calculated by comparison to control wells stimulated with borrelidin alone.

First: CN(CC1CCCN(c2cc(-c3cnc4ccc(C(F)F)nn34)ccn2)C1)S(C)(=O)=O (stereo not drawn) [II-109, N-((1-(4-(6-(Difluoromethyl)imidazo[1,2-b]pyridazin-3-yl)pyridin-2-yl)piperidin-3-yl)methyl)-N-methylmethanesulfonamide]
Second: CS(=O)(=O)N1CC2(CN(c3cc(-c4cnc5ccc(C(F)F)nn45)ccn3)CCO2)C1 [II-126, 8-(4-(6-(Difluoromethyl)imidazo[1,2-b]pyridazin-3-yl)pyridin-2-yl)-2-(methylsulfonyl)-5-oxa-2,8-diazaspiro[3.5]nonane]
The IC50 of the first is lower: 500 to 5000 nM for the first, greater than 5000 nM for the second.

same assay, conditions: compounds of Formula IV; biomarker assay, phosphorylated eIF2α Ser51 in borrelidin-treated U2OS cells

`CC1CN(c2nccc(-c3cnc4cnc(C(F)F)cn34)n2)CC(CNS(C)(=O)=O)C1(F)F` (stereo not drawn) [IV-46, N-((1-(4-(6-(Difluoromethyl)imidazo[1,2-a]pyrazin-3-yl)pyrimidin-2-yl)-4,4-difluoro-5-methylpiperidin-3-yl)methyl)methanesulfonamide] and `O=c1[nH]nc2n1CCN(c1ccnc(-c3cnc4cnc(C(F)F)cn34)n1)C2` [IV-83, 7-(2-(6-(Difluoromethyl)imidazo[1,2-a]pyrazin-3-yl)pyrimidin-4-yl)-5,6,7,8-tetrahydro-[1,2,4]triazolo[4,3-a]pyrazin-3 (2H)-one] cannot be ordered by IC50: greater than 5000 nM for the first, greater than 5000 nM for the second.

With `FC(F)c1cn2c(-c3nsc(N4CCOC(c5cn[nH]c5)C4)n3)cnc2cn1` (stereo not drawn) [IV-702, 4-(3-(6-(difluoromethyl)imidazo[1,2-a]pyrazin-3-yl)-1,2,4-thiadiazol-5-yl)-2-(1H-pyrazol-4-yl)morpholine] the IC50 was greater than 5000 nM.
